In patent publication US9303069B2, “Peptides for treating cancer” (University of Mississippi Medical Center, priority 2014, dated 2016):
Ends that are not written are not given here.

Legend:
[1] = tested on: HME, MDA-MB-231, MDA-MB-468 and BT549 cells; assay: Survival of breast cell lines after siRNA transfection followed by IRIS peptide; assay type: cell-based, human; conditions: siRNA 48 hours, then IRIS peptide 24 hours
Procedure: To rule out any off target effect of this peptide, HME, MDA-MB-231, MDA-MB-468 and BT549 cells were first transfected with luciferase (siLuc) or BRCA1-IRIS (siIRIS) siRNA for 48 hours before they were exposed to increasing concentrations of IRIS peptide for an additional 24 hours. As would be expected from treatments that target the same target, whether inactivating BRCA1-IRIS (FIG. 81) or depleting its mRNA first (FIG. 82) the percentages of cells remained following these treatments were identical (see FIG. 83).
Small interfering RNA transfections. Specific siRNAs for luciferase (negative control) or human BRCA1-IRIS were obtained from Ambion, USA. Transfection was done using Oligofectamine™ reagent (GibcoBRL Inc, USA) and standard protocol (for reference see ElShamy and Livingston, 2004). Knockdwon of the target protein was usually confirmed by Western blotting 72 hours later. Cell viability was evaluated by MTS or by manual counting after 72 hours of siRNA transfection or combined with paclitaxel (24 hour exposure). Each experiment was done in triplicate, repeated three separate times

OV-90 cells = assay type: cell-based, human; conditions: 48 h
Procedure: (§1) Thus, a peptide (hereafter IRIS peptide) composed of a cell/nucleus penetrating signal (FIG. 26) fused to BRCA1-IRIS intron 11 (FIG. 26) was synthesized. Equal numbers of HOSE, HOSE/IRIS, SKOV3, OVCAR3, OVCAR420 and OV-90 cells were grown in the presence of increasing concentrations of IRIS peptide for 48 hours.
(§2) Cell viability measurement. Cell viability under different experimental conditions was determined using the MTS assay […]. Briefly, SKOV3, OVACAR3, HOSE and HOSE/IRIS cells (2.5×10^4 cells per well) were seeded in 96 well plates and incubated overnight at 37° C. in 10% humidified CO2 atmosphere in varying concentrations of IRIS peptide, or inhibitors of ErbB2 (CP-724714), EGFR (Erlotinib), TrkB (K252a), JNK (SP600125), p38 (SB203580), ERK (PD98059) and PI3′K/AKT (LY294002) inhibitors for 24 hours at 37° C. Cell Titer 96® Aqueous (Promega, Madison, Wis., USA) was used to measure viability following manufactures instructions. Cell viability (%) was expressed as a ratio to control cells×100. Growth inhibition was also determined by manually counting cells in five different microscopic fields. Change in cell numbers (fold) was expressed as a ratio to control cells×100. All experiments were done in at least triplicates, three different times. * is p≦0.05, ** is p≦0.001 and *** is p≦0.0001.

HOSE cells = assay type: cell-based, human; conditions: 48 h
Procedure: as §1, §2

OVCAR3 cells = assay type: cell-based, human; conditions: 48 h
Procedure: as §1, §2

HME cells = conditions: 48 h
Procedure: (§3) All cell lines were exposed to increasing concentrations of paclitaxel and BRCA1-IRIS expression, and cells' viability was then measured.
(§4) Cell viability measurement. Cell viability under different experimental conditions was determined using the MTS assay. Briefly, cells (2.5×10^4 cells per well) were seeded in 96-well plates and incubated overnight at 37° C. in 10% humidified CO2 atmosphere. The next day they were incubated with varying concentration of peptide, or inhibitors for 24 hours at 37° C. Cell viability was determined using cell Titer 96® Aqueous (Promega, Madison, Wis., USA) following manufacturer's instructions. Cell viability (%) was expressed as a ratio of treated cells to control cells×100. […] Each experiment was done in triplicate, repeated three separate times.

BRCA1-IRIS = BRCA1-IRIS expression in breast cells (Western); assay type: cell-based, human
Procedure: HME and HME/IRIS cells were treated with 10, 20 and 50 μM of paclitaxel for 24 hours. Compared to HME/IRIS cells, untreated HME cells express very low level of BRCA1-IRIS (FIG. 68, left). […] Both EGF and NRG1, which were secreted at higher levels from untreated HME/IRIS cells, remained high after paclitaxel (until ˜50 μM, FIG. 68, left), whereas in HME cells, both were induced by low paclitaxel treatment (FIG. 68, left). Consistently, in HME/IRIS cells EGFR was phosphorylated on Y1173 (activated by EGF when EGFR is in complex with ErbB2) and ErbB2 on Y1248 (activated by NRG1 when ErbB2 is in complex with ErbB3) remained the same after paclitaxel treatment (until ˜50 μM, FIG. 68, left). Phosphorylated EGFR-Y1173 and ErbB2-Y1248 was only observed in paclitaxel treated HME cells, especially at low concentration (FIG. 68, left).
Survived/paclitaxel-resistant cells were then propagated in the absence of paclitaxel and analyzed. Again, the intrinsically high level of BRCA1-IRIS was not affected by paclitaxel in HME/IRIS cells (FIG. 69, left). […] The expressions of EGFR, ErbB2 and ErbB3 were high in HME/IRIS and HME cells (FIG. 69, left). Despite an intrinsic increase in HME/IRIS and paclitaxel-acquired increase in HME cells in AKT activation, FOXO inactivation/degradation and thus activation increase in CyclinD1, survivin, Bcl-2, Bcl-xL and NF-κB was observed (FIG. 69, right).
To test that hypothesis, an intron 11 peptide (right in FIG. 26) fused to a cell/nucleus penetrating signal at its N-terminus (left in FIG. 26) was synthesized (hereafter IRIS peptide). First, to assess the effect of this IRIS peptide, equal numbers of HME, HME/IRIS, MDA-MB-231, MDA-MB-468 and BT549 cells were exposed to increasing concentrations of scrambled or IRIS peptide for 48 hours. […] It is possible that preventing BRCA1-IRIS-X complex formation destabilizes BRCA1-IRIS and perhaps leads to its degradation.
To investigate whether inactivating BRCA1-IRIS could sensitize TNBC to paclitaxel-induced cell death, HME cells were exposed to 0.5 μM, while HME/IRIS, MDA-MB-231, MDA-MB-468 and BT549 cells were exposed to 5 μM of IRIS peptide alone or with 5, 10 or 20 μM of paclitaxel for 24 hours. […] Again, IRIS peptide alone at these concentrations led to 50% reduction in survival of all cell lines. […] Indeed, in the presence of IRIS peptide >60%, >70% and >90% reduction in the survival of all cell lines in the presence of 5, 10 and 20 μM of paclitaxel, respectively (FIG. 84).
To relate the effect of IRIS peptide on cell survival to the effect of BRCA1-IRIS on AKT and ERK survival pathways, MDA-MB-231 and MDA-MB-468 were treated with vehicle, 5 μM of IRIS peptide, 10 μM LY294002, 10 μM PD98059 for 24 hours or were transfected with BRCA1-IRIS siRNA for 72 hours.

BT549 cells = conditions: 48 h
Procedure: as §3, §4

For “RRIRPRPPRLPRPRPRPLPFPRPGIGTRFLCLPQSIYRSELNVYAFGEHILQISKYS [IRIS peptide]”, the “percentages of cells remaining, IRIS peptide after siIRIS versus after siLuc” value [1] was “identical”, the IC50 (OV-90 cells) was roughly 5 µM and the IC50 (HOSE cells) was roughly 1 µM. The IC50 (OVCAR3 cells) was roughly 10 µM, the IC50 (HME cells) was roughly 0.5 µM and the BRCA1-IRIS expression (BRCA1-IRIS; HME, HME/IRIS and TNBC cell lines, 5 μM of IRIS peptide for 24 hours) was “significant reduction in BRCA1-IRIS expression”. For the same sequence, the BRCA1-IRIS expression (BRCA1-IRIS; MDA-MB-231 and MDA-MB-468, 5 μM IRIS peptide, 10 μM LY294002 or 10 μM PD98059 24 hours, siRNA 72 hours) was “significantly decreased in both cell lines”, the BRCA1-IRIS expression (BRCA1-IRIS; all cell lines, IRIS peptide 0.5 μM (HME) or 5 μM (others), 24 hours) was “completely abolished BRCA1-IRIS expression in all cell lines” and the IC50 (BT549 cells) was roughly 5 µM.
